Experimental data taken from patent US20030139391A1 (priority 2000, published 2003).

Tested on: Patients diagnosed with Alzheimer's Disease
Assay: Adverse events and discontinuation in 5-month slow-titration trial
Type: in vivo, human
Description: Subjects in the Placebo group received 21 weeks (5 months) of placebo medication.
The safety of the drug was also monitored throughout the study. Blood samples for biochemistry and haematology and random urine sample for urinalysis were taken at each visit and at completion for all efficacy testing. Systolic and diastolic blood pressure were measured in the sitting position, pulse and vital signs were recorded at each visit.

## COc1ccc2c3c1O[C@H]1C[C@@H](O)C=C[C@@]31CCN(C)C2 [GAL, galantamine]
8 mg/day
  Agitation: % of patients: (15.0%)
  Agitation: number of patients: 21
  Anorexia: % of patients: (5.7%)
  Anorexia: number of patients: 8
  Bradycardia: % of patients: (3.6%)
  Bradycardia: number of patients: 5
  Convulsions: number of patients: 0
  DC due to adverse event: %: 6%
  DC due to adverse event: N: 9
  DC due to inefficacy: %: 1 (1%)
  DC due to inefficacy: N: 1 (1%)
  Depression: % of patients: (2.9%)
  Depression: number of patients: 4
  Diarrhea: % of patients: (5.0%)
  Diarrhea: number of patients: 7
  Dizziness: % of patients: (5.0%)
  Dizziness: number of patients: 7
  Dyspepsia: % of patients: (2.9%)
  Dyspepsia: number of patients: 4
  Edema peripheral: % of patients: (6.4%)
  Edema peripheral: number of patients: 9
  Fall: % of patients: (7.9%)
  Fall: number of patients: 11
  Fatigue: % of patients: (2.1%)
  Fatigue: number of patients: 3
  Headache: % of patients: (3.6%)
  Headache: number of patients: 5
  Injury: % of patients: (3.6%)
  Injury: number of patients: 5
  Muscle weakness: % of patients: (0.7%)
  Muscle weakness: number of patients: 1
  Nausea: % of patients: (5.7%)
  Nausea: number of patients: 8
  Rhinitis: % of patients: (6.4%)
  Rhinitis: number of patients: 9
  Serious adverse event Abdominal pain: %: (0.0%)
  Serious adverse event Abdominal pain: number: 0
  Serious adverse event Agitation: %: (1.4%)
  Serious adverse event Agitation: number: 2
  Serious adverse event Asthenia: %: (0.0%)
  Serious adverse event Asthenia: number: 0
  Serious adverse event Basal cell carcinoma: %: (0.0%)
  Serious adverse event Basal cell carcinoma: number: 0
  Serious adverse event Breast neoplasm female: %: (0.0%)
  Serious adverse event Breast neoplasm female: number: 0
  Serious adverse event Cardiac failure: %: (0.0%)
  Serious adverse event Cardiac failure: number: 0
  Serious adverse event Dehydration: %: (0.0%)
  Serious adverse event Dehydration: number: 0
  Serious adverse event Diarrhea: %: (0.0%)
  Serious adverse event Diarrhea: number: 0
  Serious adverse event Dyspnea: %: (0.0%)
  Serious adverse event Dyspnea: number: 0
  Serious adverse event Fall: %: (2.9%)
  Serious adverse event Fall: number: 4
  Serious adverse event Gi haemorrhage: %: (0.0%)
  Serious adverse event Gi haemorrhage: number: 0
  Serious adverse event Injury: %: (0.7%)
  Serious adverse event Injury: number: 1
  Serious adverse event Myocardial infarction: %: (2.1%)
  Serious adverse event Myocardial infarction: number: 3
  Serious adverse event Nausea: %: (0.0%)
  Serious adverse event Nausea: number: 0
  Serious adverse event Pneumonia: %: (0.7%)
  Serious adverse event Pneumonia: number: 1
  Serious adverse event Sepsis: %: (0.0%)
  Serious adverse event Sepsis: number: 0
  Serious adverse event Surgical intervention: %: (0.0%)
  Serious adverse event Surgical intervention: number: 0
  Serious adverse event Syncope: %: (0.7%)
  Serious adverse event Syncope: number: 1
  Serious adverse event Thrombophlebitis deep: %: (0.0%)
  Serious adverse event Thrombophlebitis deep: number: 0
  Serious adverse event Transient ischemic attack: %: (0.7%)
  Serious adverse event Transient ischemic attack: number: 1
  Serious adverse event Urinary tracq infection: %: (0.7%)
  Serious adverse event Urinary tracq infection: number: 1
  Serious adverse event Vomiting: %: (0.0%)
  Serious adverse event Vomiting: number: 0
  Syncope: % of patients: (1.4%)
  Syncope: number of patients: 2
  Total discontinued (DC): %: 23%
  Total discontinued (DC): N: 32
  Total patients with any SAE: %: (10.0%)
  Total patients with any SAE: number: 14
  Urinary tract infection: % of patients: (7.9%)
  Urinary tract infection: number of patients: 11
  Vomiting: % of patients: (3.6%)
  Vomiting: number of patients: 5
  Weight decrease: % of patients: (1.4%)
  Weight decrease: number of patients: 2
16 mg/day
  Agitation: % of patients: (10.0%)
  Agitation: number of patients: 28
  Anorexia: % of patients: (6.5%)
  Anorexia: number of patients: 18
  Bradycardia: % of patients: (2.5%)
  Bradycardia: number of patients: 7
  Convulsions: number of patients: 0
  DC due to adverse event: %: 7%
  DC due to adverse event: N: 19
  DC due to inefficacy: N: 0
  Depression: % of patients: (8.6%)
  Depression: number of patients: 24
  Diarrhea: % of patients: (12.2%)
  Diarrhea: number of patients: 34
  Dizziness: % of patients: (5.4%)
  Dizziness: number of patients: 15
  Dyspepsia: % of patients: (4.7%)
  Dyspepsia: number of patients: 13
  Edema peripheral: % of patients: (2.9%)
  Edema peripheral: number of patients: 8
  Fall: % of patients: (5.05%)
  Fall: number of patients: 14
  Fatigue: % of patients: (3.6%)
  Fatigue: number of patients: 10
  Headache: % of patients: (6.8%)
  Headache: number of patients: 19
  Injury: % of patients: (4.3%)
  Injury: number of patients: 12
  Muscle weakness: % of patients: (1.1%)
  Muscle weakness: number of patients: 3
  Nausea: % of patients: (13.3%)
  Nausea: number of patients: 37
  Rhinitis: % of patients: (3.2%)
  Rhinitis: number of patients: 9
  Serious adverse event Abdominal pain: %: (0.7%)
  Serious adverse event Abdominal pain: number: 2
  Serious adverse event Agitation: %: (0.4%)
  Serious adverse event Agitation: number: 1
  Serious adverse event Asthenia: %: (0.7%)
  Serious adverse event Asthenia: number: 2
  Serious adverse event Basal cell carcinoma: %: (0.0%)
  Serious adverse event Basal cell carcinoma: number: 0
  Serious adverse event Breast neoplasm female: %: (0.0%)
  Serious adverse event Breast neoplasm female: number: 0
  Serious adverse event Cardiac failure: %: (1.1%)
